According to BindingDB's records for doi:10.1111/j.1747-0285.2012.01328.x (Technical University of LÓDz, 2012):

target: HIV-1 protease (Human immunodeficiency virus, UniProt O90785); test: Fluorometric Assay
Description: The Ki value were determine by a fluorometric assay with the fluorogenic and chromogenic substrate.

HIV-1 protease, sequence (O90785 whole entry): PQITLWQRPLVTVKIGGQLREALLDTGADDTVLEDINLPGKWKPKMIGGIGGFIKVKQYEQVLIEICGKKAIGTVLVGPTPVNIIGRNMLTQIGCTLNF

IC50	Ki	SMILES
1 nM	4.6 nM	Cc1c(O)cccc1C(=O)N[C@@H](Cc1ccccc1)[C@@H](O)C[C@H](Cc1ccccc1)NC(=O)c1ccccc1 [3-Hexanol derivative, 1]
3 nM	4.8 nM	Cc1ccccc1C(=O)N[C@@H](Cc1ccccc1)C[C@H](O)[C@H](Cc1ccccc1)NC(=O)c1ccccc1C [3-Hexanol derivative, 2]
0.63 nM	0.32 nM	Cc1c(O)cccc1C(=O)N[C@@H](Cc1ccccc1)[C@@H](O)C[C@H](Cc1ccccc1)NC(=O)OC1CCOC1 (stereo partly drawn) [3-Hexanol derivative, 3]
0.17 nM	0.021 nM	CC(C)[C@@H](C(=O)N[C@@H](Cc1ccccc1)[C@@H](O)C[C@H](Cc1ccccc1)NC(=O)OC(C)(C)C)N(C)C(=O)OCc1ccccn1 [3-Hexanol derivative, 4]
